Article PMC6934700, “Structure-Guided Design of a Fluorescent Probe for the Visualization of FtsZ in Clinically Important Gram-Positive and Gram-Negative Bacterial Pathogens” (Scientific Reports, 2019)
Read-outs that look alike come from different tables or passages of the source.

What was measured:
[1] = target: T1, A. baumannii (AbFtsZ) (Acinetobacter baumannii, UniProt V5V8B6); assay: Fluorescence anisotropy binding of BOFP to AbFtsZ; conditions: for Kd: 50 mM Tris-HCl (pH 7.6), 50 mM KCl, 0.1 µM BOFP
T1 sequence (V5V8B6 1-391): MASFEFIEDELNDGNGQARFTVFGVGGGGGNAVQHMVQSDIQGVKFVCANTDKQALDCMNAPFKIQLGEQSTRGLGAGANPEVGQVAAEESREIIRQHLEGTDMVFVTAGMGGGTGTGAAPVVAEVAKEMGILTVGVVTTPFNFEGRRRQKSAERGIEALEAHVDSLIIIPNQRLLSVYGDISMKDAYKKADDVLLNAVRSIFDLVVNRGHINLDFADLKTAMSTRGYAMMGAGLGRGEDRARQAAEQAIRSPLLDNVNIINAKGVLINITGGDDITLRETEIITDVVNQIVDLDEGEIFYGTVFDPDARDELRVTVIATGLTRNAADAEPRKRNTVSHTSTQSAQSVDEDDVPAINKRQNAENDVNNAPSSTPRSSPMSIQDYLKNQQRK
Experimental: (§1) Fluorescence anisotropy experiments were performed using an AVIV model ATF105 spectrofluorometer at 15, 25, or 37 °C. In these experiments, bandwidths were set to 4 nm in both the excitation and emission directions, with the excitation and emission wavelengths being set at 488 nm and 510 nm, respectively. BOFP (0.1 µM) was titrated with increasing concentrations (ranging from 0 to 12 µM) of FtsZ in 120 µL of buffer containing 50 mM Tris-HCl (pH 7.6) and 50 mM KCl. After each protein addition, the samples were equilibrated for 3 minutes, whereupon the fluorescence anisotropy was measured.
(§2) In this equation, r0 is the anisotropy of the protein-free compound, r∞ is the anisotropy of the compound in the presence of an infinite concentration of FtsZ, [C]tot is the total concentration of the compound, and [P]tot is the total concentration of protein with each addition. These analyses yielded the equilibrium dissociation constant (Kd) for each binding reaction.
(§3) The binding free energy (ΔG) at temperature T was derived from the corresponding Kd value determined at T using the following relationship:2 ΔG=−RTln(1/Kd)
(§4) The binding enthalpy (ΔH) and entropy (ΔS) were derived from linear fits of the ln(1/Kd) vs. 1/T plots shown in Figs. 3f and 5e using the following relationship:3 ln(1/Kd)=−ΔH/R(1/T)+ΔS/R

[2] = target: T2, S. agalactiae (SagFtsZ) (Streptococcus agalactiae, UniProt Q8E183); assay: Fluorescence anisotropy binding of BOFP to SagFtsZ; conditions: for Kd: 50 mM Tris-HCl (pH 7.6), 50 mM KCl, 0.1 µM BOFP
T2 sequence (Q8E183 1-426): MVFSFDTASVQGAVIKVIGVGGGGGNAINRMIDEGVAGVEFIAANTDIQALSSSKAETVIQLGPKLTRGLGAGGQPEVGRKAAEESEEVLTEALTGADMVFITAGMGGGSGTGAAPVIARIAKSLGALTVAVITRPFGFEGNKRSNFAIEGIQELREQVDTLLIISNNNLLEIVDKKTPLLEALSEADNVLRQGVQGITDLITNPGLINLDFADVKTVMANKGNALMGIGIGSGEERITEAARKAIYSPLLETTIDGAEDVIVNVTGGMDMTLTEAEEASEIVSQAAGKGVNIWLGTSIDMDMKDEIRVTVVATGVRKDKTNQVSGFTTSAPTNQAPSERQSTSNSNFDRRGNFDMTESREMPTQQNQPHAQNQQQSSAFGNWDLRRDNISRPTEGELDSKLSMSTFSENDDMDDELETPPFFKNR
Experimental: as §1, §2, §3, §4

[3] = tested on: FtsZ in S. pyogenes ATCC 19615 cells; assay: FtsZ visualization by fluorescence microscopy in live cells; assay type: cell-based, Streptococcus pyogenes; conditions: 1 µg/mL for 5 minutes
Experimental: (§5) All differential interference contrast (DIC) and fluorescence microscopy experiments were conducted using an Olympus BX50 microscope equipped with an X-cite Exacte 200 W mercury lamp, a 100× Olympus UPLSAPO oil immersion objective (1.40 aperture), as well as both Chroma ET-EGFP (FITC/Cy2) and ET mCherry, Texas Red filters. Images were captured using a QImaging Retiga R3 charge-coupled device (CCD) camera and the Ocular-Version 2.0 software package (QImaging).
For visualizing FtsZ in Gram-positive bacteria using BOFP, the bacterial cells were grown to log-phase in media suitable for each individual pathogen. Specifically, S. aureus NRS705 (MRSA) was grown in tryptic soy broth (TSB), E. faecalis ATCC 29212 and E. faecium ATCC 19434 were grown in lactobacilli MRS broth, S. agalactiae ATCC 12386 and S. pneumoniae ATCC 49619 were grown in TH broth, and S. pyogenes ATCC 19615 was grown in CAMH broth supplemented with 3% (v/v) LHB. For each Gram-positive bacterial strain, a total of 1 mL of cell culture was centrifuged at 15,000 × g for 1 minute and washed 2–3 times with 1 mL of PBS. After the final wash, the pelleted cells were resuspended in 500 µL of PBS containing 1 µg/mL of BOFP and incubated in the dark for 5 minutes at room temperature. The cells were then centrifuged at 15,000 × g for 1 minute, washed twice with 1 mL of PBS, and subsequently resuspended in 200 µL of PBS. […]

[4] = tested on: MRSA LAC FtsZ-mCherry; assay: Colocalization of BOFP labeling with induced FtsZ-mCherry fusion protein; assay type: cell-based, Staphylococcus aureus; conditions: 1 µg/mL BOFP for 5 minutes; vehicle-treated and 1-treated cells
Experimental: as §5
To visualize the impact of treating MRSA LAC FtsZ-mCherry with 1, cells were grown to log-phase in CAMH broth and diluted to an OD600 of 0.1. […] Following this treatment, 1–5 mL of each culture was centrifuged at 15,000 × g for 1 minute and washed twice with 1 mL of PBS. The resulting cell pellets were further processed and labeled with BOFP as described above for the Gram-positive bacterial strains.

[5] = target: E. faecalis (EfsFtsZ) (Enterococcus faecalis, UniProt O08439); assay: Fluorescence anisotropy binding of BOFP to EfsFtsZ; conditions: for Kd: 50 mM Tris-HCl (pH 7.6), 50 mM KCl, 0.1 µM BOFP
E. faecalis (EfsFtsZ), sequence (O08439 whole entry): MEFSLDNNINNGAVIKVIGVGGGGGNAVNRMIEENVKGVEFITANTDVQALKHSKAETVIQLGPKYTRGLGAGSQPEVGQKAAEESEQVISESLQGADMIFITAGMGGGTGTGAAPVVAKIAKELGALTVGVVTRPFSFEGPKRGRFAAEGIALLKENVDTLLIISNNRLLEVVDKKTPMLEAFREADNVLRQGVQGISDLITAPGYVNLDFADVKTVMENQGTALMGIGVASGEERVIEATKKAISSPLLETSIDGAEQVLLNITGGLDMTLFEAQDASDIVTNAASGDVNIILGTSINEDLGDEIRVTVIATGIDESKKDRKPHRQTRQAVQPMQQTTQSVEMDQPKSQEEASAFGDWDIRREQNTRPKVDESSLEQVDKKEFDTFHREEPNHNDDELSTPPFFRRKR
Experimental: as §1, §2, §3, §4

[6] = from linear fit of ln(1/Kd) vs. 1/T

## CC1=CC(C)=[N+]2C1=Cc1ccc(CCC(=O)OCC(Oc3ccc(F)c(C(N)=O)c3F)c3nc(-c4ccc(C(F)(F)F)cc4)c(Br)o3)n1[B-]2(F)F (stereo not shown) [BOFP]
[1]; 15 °C, read-out: Kd - 15 °C
  Kd: 0.4 ± 0.03 µM
[1]; 25 °C, read-out: Kd - 25 °C
  Kd: 0.55 ± 0.02 µM
[1]; 37 °C, read-out: Kd - 37 °C
  Kd: 0.68 ± 0.04 µM
[1]; [6]
  ΔH: -4.2 ± 0.6 kcal/mol
[2]; 15 °C, read-out: Kd - 15 °C
  Kd: 0.62 ± 0.05 µM
[2]; 25 °C, read-out: Kd - 25 °C
  Kd: 1.02 ± 0.09 µM
[2]; 37 °C, read-out: Kd - 37 °C
  Kd: 1.31 ± 0.04 µM
[2]; [6]
  ΔH: -6.6 ± 0.6 kcal/mol
[3]
  Fluorescence staining / FtsZ labeling in live cells: bright bands of fluorescence staining are clearly visible at midcell
[4]
  Colocalization of BOFP green fluorescence with FtsZ-mCherry red fluorescence: colocalizes with the red fluorescence
[5]; Kd - 15 °C, 15 °C
  Kd: 1.72 ± 0.06 µM
[5]; Kd - 25 °C, 25 °C
  Kd: 3.05 ± 0.25 µM
[5]; Kd - 37 °C, 37 °C
  Kd: 4.62 ± 0.12 µM
[5]; calculated at T = 310 K (37 °C) from Kd
  ΔG: -7.6 ± 0.1 kcal/mol
[5]; [6]
  ΔH: -7.9 ± 1.0 kcal/mol
  ΔS: −1.2 ± 3.3 cal/mol•K
